This note sets out measurements from US20230002373A1, “COMPOUNDS AND COMPOSITIONS FOR TREATING CONDITIONS ASSOCIATED WITH STING ACTIVITY” (IFM Due, Inc., priority 2019, published 2023).

T1 sequence (Q86WV6 whole entry R71H/G230A/H232R/R293Q): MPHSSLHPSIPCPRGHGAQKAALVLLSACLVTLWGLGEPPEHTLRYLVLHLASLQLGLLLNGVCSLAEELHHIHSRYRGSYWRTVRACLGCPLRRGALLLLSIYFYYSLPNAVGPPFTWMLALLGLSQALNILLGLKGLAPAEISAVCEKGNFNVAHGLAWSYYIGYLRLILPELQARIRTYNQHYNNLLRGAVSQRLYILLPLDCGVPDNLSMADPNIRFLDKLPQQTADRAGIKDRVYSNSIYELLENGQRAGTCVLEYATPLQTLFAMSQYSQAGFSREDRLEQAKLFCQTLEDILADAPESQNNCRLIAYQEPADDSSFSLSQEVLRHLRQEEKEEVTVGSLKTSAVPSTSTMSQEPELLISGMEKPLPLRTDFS

The assay addresses T1, hSTING (Homo sapiens, UniProt Q86WV6, G230A/H232R/R293Q/R71H).
T1 construct: host or cells: THP1-Dual KO-IFNAR2 cells
Description: STING reporter assay (luciferase) in THP1-Dual KO-IFNAR2 cells stimulated with 2′3′cGAMP. The assay is classed as cell-based. The settings on record: 15 μM 2′3′cGAMP, 24 h, class symbols. On the procedure: STING pathway activation by the compounds described herein was measured using THP1-Dual™ cells (KO-IFNAR2).
THP1-Dual™ KO-IFNAR2 Cells (obtained from invivogen) were maintained in RPMI, 10% FCS, 5 ml P/S, 2 mM L-glut, 10 mM Hepes, and 1 mM sodium pyruvate. Compounds were spotted in empty 384 well tissue culture plates (Greiner 781182) by Echo for a final concentration of 0.0017-100 μM. Cells were plated into the TC plates […], 2×10E6 cells/mL. For activation with STING ligand, 2′3′cGAMP (MW 718.38, obtained from Invivogen), was prepared in Optimem media.
The following solutions were prepared for each 1×384 plate: • Solution A: 2 mL Optimem with one of the following stimuli: • 60 μL of 10 mM 2′3′cGAMP->150 μM stock • Solution B: 2 mL Optimem with 60 μL Lipofectamine 2000->Incubate 5 min at RT
2 mL of solution A and 2 ml Solution B was mixed and incubated for 20 min at room temperature (RT). 20 uL of transfection solution (A+B) was added on top of the plated cells, with a final 2′3′cGAMP concentration of 15 μM. The plates were then centrifuged immediately at 340 g for 1 minute, after which they were incubated at 37° C., 5% CO2, >98% humidity for 24 h. Luciferase reporter activity was then measured. EC50 values were calculated by using standard methods known in the art.
Luciferase reporter assay: 10 μL of supernatant from the assay was transferred to white 384-plate with flat bottom and squared wells. One pouch of QUANTI-Luc™ Plus was dissolved in 25 mL of water. 100 μL of QLC Stabilizer per 25 mL of QUANTI-Luc™ Plus solution was added. 50 μL of QUANTI-Luc™ Plus/QLC solution per well was then added. Luminescence was measured on a Platereader (e.g., Spectramax I3X (Molecular Devices GF3637001)).
Luciferase reporter activity was then measured. EC50 values were calculated by using standard methods known in the art.
(In general: Reporter assays use an easily measured gene product as a stand-in for the process of interest.)
`C[C@@H](NC(=O)C(=O)Nc1c[nH]c2c(F)cncc12)c1ccc(C(F)(F)F)cc1` [Compound 205]: the EC50 is 1 to 5 µM. Then `CC(C)n1cc(-c2ccc3[nH]cc(NC(=O)C(=O)Nc4ccc(C5CCCCC5)cn4)c3n2)cn1` [Compound 206, N-(5-cyclohexylpyridin-2-yl)-N′-(5-(1-isopropyl-1H-pyrazol-4-yl)-1H-pyrrolo[3,2-b]pyridin-3-yl)oxalamide], with 1 to 5 µM. Next, `Cc1ccc2[nH]cc(NC(=O)C(=O)Nc3ccc(C4CCCCC4)cn3)c2n1` [Compound 207]: 0.2 to 1 µM; `O=C(NCc1ccc(Cl)c(OC(F)(F)F)c1)C(=O)Nc1c[nH]c2c(F)cncc12` [Compound 208]: 1 to 5 µM.

Molecule `Cc1ccccc1N1C2CCC1CC(NC(=O)C(=O)Nc1c[nH]c3ncc(F)cc13)C2` (stereo not shown) [Compound 209, N-[5-fluoro-1H-pyrrolo[2,3-b]pyridin-3-yl]-N′-[8-(2-methylphenyl)-8-azabicyclo[3.2.1]octan-3-yl]ethanediamide] registered an EC50 of 1 to 5 µM. Next, `O=C(Nc1ccc(C2CCCCC2)cn1)C(=O)Nc1c[nH]c2ccc(Br)nc12` [Compound 210]: 0.2 to 1 µM; `O=C(NCc1ccc(OC(F)(F)F)c(Cl)c1)C(=O)Nc1c[nH]c2ccncc12` [Compound 211]: 0.2 to 1 µM; `O=C(NCc1ccc(Cl)c(OC(F)(F)F)c1)C(=O)Nc1c[nH]c2ccncc12` [Compound 212]: 0.2 to 1 µM. The molecule `Cc1cc(CNC(=O)C(=O)Nc2c[nH]c3cnccc23)ccc1C(F)(F)F` [Compound 213] showed an EC50 of 1 to 5 µM. Molecule `COc1cc2c(NC(=O)C(=O)NCc3ccc(C)c(C(F)(F)F)c3)c[nH]c2cn1` [Compound 214] displayed an EC50 of 1 to 5 µM. In turn, `COc1ccc2[nH]cc(NC(=O)C(=O)NCc3ccc(C)c(C(F)(F)F)c3)c2n1` [Compound 215] showed an EC50 of 0.2 to 1 µM. Next, `O=C(Nc1ccc(C(F)(F)F)c(Cl)c1)C(=O)Nc1c[nH]c2ccncc12` [Compound 216]: 0.2 to 1 µM.

On to `O=C(Nc1ccc(C(F)(F)F)c(Cl)c1)C(=O)Nc1c[nH]c2cccnc12` [Compound 217], for which the EC50 lay within 1 to 5 µM.

As usually defined, the EC50 is the concentration needed to bring the measured effect to its halfway point. Low readings indicate an effect from little substance, high ones a need for much substance.
